Test results taken from patent US7625917B2, “Thiolesters and uses thereof” (priority 1998, dated 2009).
Entries after “also recorded” stand apart in the source; their conditions may differ.

Experiments:
[1] = biological target: T1, Virion-associated NCp7 proteins from cell-free HIV-1MN (Human immunodeficiency virus type 1 group M subtype B, UniProt P05888); experiment: Virion NCp7 cross-linking (non-reducing Western blotting)
T1 construct: attack on the mature NCp7 retroviral zinc fingers in the cell-free virus; endogenous in cells
Experimental: The interaction of zinc finger inhibitors, such as the thiolesters of the invention, with cell-free virus can result in modification of intravirion NCp7 protein and loss of infectivity. Virion-associated NCp7 proteins from cell-free HIV-1MN were treated with thiolester compounds 44 and 45. They were also evaluated by non-reducing Western blotting using HIV-1 NCp7-specific antibodies. […] Cross-linking by compound 45 was due to formation of intermolecular disulfide bonds because reduction with 2-mercaptoethanol (β-ME) completely reversed the gel retardation.
Virion cross linking was performed as described by Rice (1995) Science 270:1194-1197 and Turpin (1997) Antiviral Chem. Chemother. 8:60-67. Briefly, highly purified HIV-1MN (11.8 μg total protein) was incubated for 2 hour with concentrations of compound. Virions were concentrated and residual compound was removed by centrifugation (18,000×g, 1 h, 4° C.). The viral pellet was solubilized in 0.5 M Tris-HCl, (pH 6.8), 50% glycerol, 8% SDS and 0.4% bromophenol blue and proteins resolved by Western blotting. Western blotting to detect the expression of HIV-1 proteins in U1 cells or virus pellets for virion cross-linking experiments was carried out as described by Turpin (1996) J. Virol. 70:6180-6189. Briefly, 50 μg of total cellular protein for U1 experiments or the. total virion pellet (11.8 μg total viral protein) for NCp7 cross linking studies was resolved on 4 to 20% polyacrylamide gels in SDS with Tris-Glycine (Novex, San Diego Calif.). Samples for reduced gels were boiled for 5 min in the presence of 5% β-ME prior to loading. Resolved proteins were electroblotted on to polyvinylidene difluoride (PVDF) membranes, and HIV-1 specific proteins were detected using a mixture of goat anti-HIV-1 NCp7 and p24 or anti-NCp7 for virion proteins alone (a kind gift of L. E. Henderson, AIDS Vaccine Program NCI-FCRDC, Frederick, Md.). Western blots were developed using standard chemiluminescence methodologies, as produced and described by Dupont-NEN, Wilmington, Del.
Purified concentrated retrovirus and antisera against the purified NC protein of the virus can be used to test the ability of a specific compound to penetrate the virus and react with the NC protein by forming disulfide complexes in the core of the virus. Compound are mixed with the whole retrovirus under reaction conditions appropriate for the compound. The virus is then removed from the reagent by centrifugation and disrupted in, e.g., standard SDS-PAGE sample buffer with (reduced) and without (non-reduced) 2-mercaptoethanol. The viral proteins are then separated by standard SDS-PAGE and the sample examined for the presence or absence of the monomeric zinc finger protein in the non-reduced sample. Depending upon the virus used in the experiment and the conditions of electrophoresis, the zinc finger protein can be visualized by protein staining methods, or by immuno-blot methods. Compounds which react with the zinc finger protein by attacking the zinc finger complexes and forming disulfide cross-linked products inactivate the virus. Thus, compounds of interest (i.e., those which cause cross-linking), including the thiolesters of the invention, reduce the amount of monomeric zinc finger protein detected.

NCp7 = NCp7 (Human immunodeficiency virus type 1 group M subtype B, UniProt P03347); experiment: NCp7 oligonucleotide binding EMSA; format: biochemical, HIV-1; conditions: for concentration at which NCp7-oligonucleotide complex formation was inhibited: EMSA
Experimental: Zinc finger reactivity was measured using a Zn specific fluorochrome, TSQ, N-(6-methoxy-8-quinolyl)-p-toluenesulfonamide, assay or a Trp37 zinc finger fluorescence assay. Fluorescent measurements of the Trp37 residue in the C-terminal finger of recombinant HIV-1 NCp7 protein were performed as described by Rice (1995) Science 270:1194-1197; Rice (1997) Antimicrob. Agents Chemother. 41:419-426. Measurement of Zn ejection from both fingers was measured using the Zn-selective fluorchrome probe TSQ (Molecular Probes, Eugene Oreg.) as described by Rice (1996) J. Med. Chem 39:3606-3616. Measurement of the ability of NCp7 to bind to a DNA oligomer, a 44 mer: GGCGACTGGTGAGTACGCCAAAAATTTTGACTAGCGGAGGCTAG (SEQ ID NO:1), analogous to the HIV-1 RNA packaging site was carried out as described by Huang (1998) J. Med. Chem. 41:1371-1381, see also, Rossio (1998) HIV Pathogenesis and Treatment: Keystone Symposium on Molecular and Cellular Biology, Abstract # 4082. Briefly, 50 nM NCp7 was treated with test compounds for 1 hour at RT in […] buffer containing 10% glycerol and 50 mM Tris-HCl (pH 7.5). Labeled oligomer (0.1 picomole, end labeled [^32P] was added in an equal volume of buffer containing 10% glycerol, 50 mM Tris-HCl (pH 7.5), 400 mM KCl and 40 mM MgCl2. The reaction was continued for 15 min at room temperature, and a total of […] (or ¼ of the total reaction volume) was separated on nondenaturing 4.5% polyacrylamide gels in 0.5× Tris-Borate electrophoresis buffer. NCp7-oligomer complexes were visualized by autoradiography.
Interaction of zinc finger inhibitors with NCp7 can result in loss of protein structure and their ability to specifically bind oligonucleotides representing the HIV-1ψpackaging site (Huang (1998) supra; Tummino (1997) Antimicrob. Agents Chemother. 41:394-400; South (1993) Protein Sci. 2:3-19; Dannull (1994) EMBO J. 13:1525-1533). The ability of NCp7 to specifically associate with these oligonucleotides after treatment of the protein with a thiolester of the invention was tested. For example, compounds 44, 45 or 47 were very effective at inhibiting Ncp7's ability to associate with target oligonucleotide, as determined using electrophoretic mobility shift assays (EMSA) on nondenaturing polyacrylamide gels. At 1 μM, compound 45 inhibited complex formation. Compounds 44 and 47 inhibited complex formation at 100 μM (see Table 9).

U1 cells = experiment: Cell viability of TNFα-induced U1 cells; format: cell-based
Experimental: Thiolester compounds were also tested for their ability to. inhibit HIV-1 replication in TNFα-induced U1 and ACH-2 cells. U1 cells were induced with 5 ng/ml of TNFα in the presence of various concentrations of the thiolesters 44, 45 or 47. Forty-eight hours later the cultures were characterized for virus p24 antigen production and cell viability. […] Compound 44 killed 60% of the cells at 200 μM. […] Precursor processing evaluation performed as described by Turpin (1997) Antiviral Chem. Chemother. 8:60-69. Thus, thiolester PATEs initiate intracellular disulfide cross-linking of precursor polyproteins during late phase virus assembly and mediate a direct virucidal effect via an attack on the mature NCp7 retroviral zinc fingers in the cell-free virus.

Row | SMILES | intravirion NCp7 cross-linking (in words) [1] | concentration at which NCp7-oligonucleotide complex formation was inhibited (NCp7) | cells killed (U1 cells; U1 cells, at 200 μM) | cellular toxicity in U1 cells (U1 cells; high test dose of 100 μM) | cellular toxicity in U1 cells (U1 cells; higher dose testing (300 μM)) | IC50 (NCp7)
1 | CC(=O)NS(=O)(=O)c1ccc(NC(=O)c2ccccc2SC(=O)CCCCBr)cc1 [Compound 44, N-[2-(5-bromovaleroylthio)benzoyl]sulfacetamide] | very poor cross-linking agent | 100 µM | 60% | No cellular toxicity |  | 
2 | CC(=O)NS(=O)(=O)c1ccc(NC(=O)c2ccccc2SC(=O)CCCC[n+]2ccccc2)cc1 [Compound 45, N-[2-(5-pyridinio-valeroylthio)benzoyl]sulfacetamide bromide] | extensive cross-linking of NCp7; also recorded: strong cross-linker of intravirion NCp7 | 1 µM |  | No cellular toxicity | no toxicity | 
3 | O=C(CCCC[n+]1ccccc1)Sc1ccccc1C(=O)Nc1ccc(S(=O)(=O)c2ccc([N+](=O)[O-])cc2)cc1 [Compound 47] | did not effectively initiate NCp7 cross-linking | 100 µM |  | No cellular toxicity | no toxicity | 100 µM
4 | O=C(O)CCCC[n+]1ccccc1.[Br-] [Compound 53, 5-pyridiniovaleric acid] | Neither intravirion cross-linkage of NCp7 nor virucidal activity were detected |  |  |  |  | 
